Here are results for 52 compounds from patent publication US5475132A, “Antifungal agents based on amides containing a phenyl group” (Rhone-Poulenc Agrochimie, priority 1988, dated 1995).

This experiment has as its system Phytophthora citrophthora. As to the kind of experiment: Example B3: action on phytopathogenic soil fungi, growth on agar in Petri dishes. The experiment is classed as cell-based. The settings on record: 120 h, read-out: inhibition of the development of the fungus.
The mark [1] stands for this setting: 30 ppm, agar medium, 22° C., 5 days.

Like-named read-outs stand apart in the source and are kept apart here.

The term inhibition denotes the relative decrease from the control value, in per cent. Take `COc1ccc(-c2c(C(=O)N3CCOCC3)sc3c(NC(=O)C(F)(F)F)cccc23)cc1OC` [Compound 131]: the inhibition at 30 ppm under setting [1] was at least 80%.
For `COc1ccc(-c2c(C(=O)N3CCOCC3)sc3c(NC(C)=O)cccc23)cc1OC` [Compound 132], the inhibition at 30 ppm under setting [1] was at least 80%.
The same measure, in the same setting: under `COc1ccc(-c2c(C(=O)N3CCOCC3)sc3ccc(C(F)(F)F)cc23)cc1OC` [Compound 133] stands at least 80%.
Consider `COc1ccc(-c2c(C(=O)N3CCOCC3)sc3ccc(-c4ccsc4)cc23)cc1OC` [Compound 134], for which the inhibition at 30 ppm under setting [1] was at least 80%.
Still for that read-out and setting: next, `COc1ccc(-c2c(C(=O)N3CCOCC3)sc3ccc(-c4ccccc4)cc23)cc1OC` [Compound 135]: at least 80%; `COc1ccc(-c2c(C(=O)N3CCOCC3)oc3ccc([N+](=O)[O-])cc23)cc1OC` [Compound 136]: at least 80%; `COc1ccc(-c2c(C(=O)N3CCOCC3)oc3ccccc23)cc1OC` [Compound 137]: at least 80%.
As for `COc1ccc(-c2c(C(=O)N3CCOCC3)n(C)c3ccc([N+](=O)[O-])cc23)cc1OC` [Compound 141], under setting [1], the inhibition at 30 ppm was at least 80%.
Regarding `COc1ccc(C2=C(C(=O)N3CCOCC3)Cc3cc(OC)c(OC)cc32)cc1` [Compound 149], the inhibition at 30 ppm under setting [1] is at least 80%.
With `CCN(C)C(=O)c1sc2ccccc2c1-c1ccc(OC)c(OC)c1` [Compound 150], the inhibition at 30 ppm under setting [1] is at least 80%.
With `COc1ccc(-c2c(C(=O)N3CCCCC3)sc3ccccc23)cc1OC` [Compound 153], the inhibition at 30 ppm under setting [1] was at least 80%.
With `COc1ccc(-c2c(C(=O)N3CCCC3)sc3ccccc23)cc1OC` [Compound 154], under setting [1], the inhibition at 30 ppm was at least 80%.
Same read-out and setting: under `COc1ccc(-c2c(C(=O)N(C)C)sc3ccccc23)cc1OC` [Compound 155] stands at least 80%; under `COc1ccc(-c2c(C(=O)N(C)CCO)sc3ccccc23)cc1OC` [Compound 156], at least 80%; under `COc1ccc(-c2c(C(=O)N3CCCCC3CO)sc3ccccc23)cc1OC` (stereo not shown) [Compound 157], at least 80%.
As to `COCCN(C)C(=O)c1sc2ccccc2c1-c1ccc(OC)c(OC)c1` [Compound 158], the inhibition at 30 ppm under setting [1] was at least 80%.
As for `COc1ccc(-c2c(C(=O)N3CCC(=O)CC3)sc3ccccc23)cc1OC` [Compound 162], the inhibition at 30 ppm was at least 80%.
Regarding `COCC1CCCN1C(=O)c1sc2ccccc2c1-c1ccc(OC)c(OC)c1` (stereo not shown) [Compound 163], under setting [1], the inhibition at 30 ppm was at least 80%.
In the case of `COc1ccc(-c2c(C(=O)N3CCCC(O)C3)sc3ccccc23)cc1OC` (stereo not shown) [Compound 164], the inhibition at 30 ppm under setting [1] was at least 80%.
`COc1ccc(-c2c(C(=O)N3CCCC(OC)C3)sc3ccccc23)cc1OC` (stereo not shown) [Compound 166]: the inhibition at 30 ppm under setting [1] is at least 80%.
In the case of `CCN(C)C(=O)c1sc2ccc(F)cc2c1-c1ccc(OC)c(OC)c1` [Compound 167], the inhibition at 30 ppm under setting [1] is at least 80%.
As for `COCCN(C)C(=O)c1sc2ccc(F)cc2c1-c1ccc(OC)c(OC)c1` [Compound 169], the inhibition at 30 ppm under setting [1] was at least 80%.
For `COc1ccc(-c2cc(-c3ccc(F)cc3)ccc2C(=O)N2CCOCC2)cc1OC` [Compound 201, 2-(3,4-Dimethoxyphenyl)-4-(4-fluorophenyl)-1-morpholinocarbonylbenzene], the inhibition at 30 ppm under setting [1] was at least 80%.
Still for that read-out and setting: under `COc1ccc(-c2cc(-c3ccccc3)ccc2C(=O)N2CCOCC2)cc1OC` [Compound 202] stands at least 80%; under `COc1ccc(-c2cc(-c3ccc(C)cc3)ccc2C(=O)N2CCOCC2)cc1OC` [Compound 203], at least 80%.
Consider `COCCN(C)C(=O)c1ccc(Br)cc1-c1ccc(OC)c(OC)c1` [Compound 204], for which the inhibition at 30 ppm under setting [1] is at least 80%.
In the case of `CCN(CC)C(=O)c1ccc(Br)cc1-c1ccc(OC)c(OC)c1` [Compound 205], the inhibition at 30 ppm under setting [1] was at least 80%.
Same read-out and setting: under `CCN(C)C(=O)c1ccc(Br)cc1-c1ccc(OC)c(OC)c1` [Compound 206] stands at least 80%.
Take `COc1ccc(-c2cc(Cl)ccc2C(=O)N2CCOCC2)cc1OC` [Compound 208]: the inhibition at 30 ppm under setting [1] was at least 80%.
Take `CCN(C)C(=O)c1ccc(Cl)cc1-c1ccc(OC)c(OC)c1` [Compound 209]: under setting [1], the inhibition at 30 ppm is at least 80%.
The same measure, in the same setting: under `COCCN(C)C(=O)c1ccc(Cl)cc1-c1ccc(OC)c(OC)c1` [Compound 210] stands at least 80%; under `CCN(CC)C(=O)c1ccc(Cl)cc1-c1ccc(OC)c(OC)c1` [Compound 211], at least 80%; under `C=C(C)c1ccc(C(=O)N(C)CC)c(-c2ccc(OC)c(OC)c2)c1` [Compound 212], at least 80%.
Regarding `C=C(C)c1ccc(C(=O)N(C)CCOC)c(-c2ccc(OC)c(OC)c2)c1` [Compound 213], the inhibition at 30 ppm under setting [1] is at least 80%.
Turning to `C=C(C)c1ccc(C(=O)N(CC)CC)c(-c2ccc(OC)c(OC)c2)c1` [Compound 214], under setting [1], the inhibition at 30 ppm was at least 80%.
Consider `CCN(C)C(=O)c1ccc(-c2ccc(C)cc2)cc1-c1ccc(OC)c(OC)c1` [Compound 215], for which the inhibition at 30 ppm under setting [1] was at least 80%.
With `COc1ccc(-c2cc(-c3ccc(C)cc3)ccc2C(=O)N(C)CCO)cc1OC` [Compound 216], the inhibition at 30 ppm under setting [1] was at least 80%.
Consider `COc1ccc(-c2cc(-c3ccc(C)cc3)ccc2C(=O)N(C)C)cc1OC` [Compound 217], for which, under setting [1], the inhibition at 30 ppm is at least 80%.
On to `COc1ccc(-c2cc(Br)ccc2C(=O)N2CCOCC2)cc1OC` [Compound 222], for which the inhibition at 30 ppm under setting [1] was at least 80%.
On the same count and under the same terms, under `COc1ccc(-c2c(Br)cccc2C(=O)N2CCOCC2)cc1OC` [Compound 223] stands at least 80%; under `O=C(c1ccc(Br)cc1-c1ccc2c(c1)OCO2)N1CCOCC1` [Compound 224], at least 80%.
`CCN(C)C(=O)c1ccc(-c2ccc(F)cc2)cc1-c1ccc2c(c1)OCO2` [Compound 228]: the inhibition at 30 ppm under setting [1] is at least 80%.
Turning to `O=C(c1ccc(-c2ccc(F)cc2)cc1-c1ccc2c(c1)OCO2)N1CCOCC1` [Compound 229], under setting [1], the inhibition at 30 ppm was at least 80%.
Still for that read-out and setting: next, `CCN(C)C(=O)c1ccc(-c2ccc(C)cc2)cc1-c1ccc2c(c1)OCO2` [Compound 230]: at least 80%; `Cc1ccc(-c2ccc(C(=O)N3CCOCC3)c(-c3ccc4c(c3)OCO4)c2)cc1` [Compound 231]: at least 80%; `COc1ccc(-c2ccc(C(=O)N3CCOCC3)c(-c3ccc(OC)c(OC)c3)c2)cc1OC` [Compound 234]: at least 80%.
Regarding `COc1ccc(-c2cc(C=C(C)C)ccc2C(=O)N2CCOCC2)cc1OC` [Compound 235], under setting [1], the inhibition at 30 ppm was at least 80%.
The same measure, in the same setting: under `C=C(C)c1ccc(C(=O)N2CCOCC2)c(-c2ccc(OC)c(OC)c2)c1` [Compound 236] stands at least 80%.
As to `COc1ccc(-c2cc(-c3ccc(Cl)cc3)ccc2C(=O)N2CCOCC2)cc1OC` [Compound 237], the inhibition at 30 ppm under setting [1] is at least 80%.
Take `COc1ccc(-c2cc(-c3ccsc3)ccc2C(=O)N2CCOCC2)cc1OC` [Compound 238]: the inhibition at 30 ppm under setting [1] is at least 80%.
With `COc1ccc(-c2cc(-c3ccc4c(c3)OCO4)ccc2C(=O)N2CCOCC2)cc1OC` [Compound 239], under setting [1], the inhibition at 30 ppm was at least 80%.
Take `COc1ccc(-c2nc(-c3ccccc3)ccc2C(=O)N2CCOCC2)cc1OC` [Compound 301, N-[2-(3,4-dimathoxyphenyl)-6-phenylnicotinoyl]morpholine]: the inhibition at 30 ppm under setting [1] is at least 80%.
